Converted amounts (≈) assume the structure as drawn.
Tests used:
[1] = system: Escherichia coli (E. coli) BAS849; assay: Antibacterial activity, microbroth dilution MIC (Table 1); type: cell-based; settings: microbroth dilution, super sensitive Gram-negative E. coli BAS849, read-out: MIC, BAS849
In short: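 Values are MICs (μg/mL): the smallest drug amount at which macroscopically visible bacterial growth is absent under assay conditions, from a microdilution method in broth.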

[2] = system: Staphylococcus aureus (S. aureus) 29213; assay: as above; type: cell-based; settings: microbroth dilution, Gram-positive S. aureus 29213, read-out: MIC, 29213
In short: (§1)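 Broth microdilution against S. aureus 29213, E. coli 25922 and hypersensitive E. coli BAS849. MIC in μg/mL is the lowest drug concentration preventing macroscopically visible growth under test conditions.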

E. coli 25922 = assay: as above; type: cell-based, Escherichia coli; settings: Escherichia coli; microbroth dilution; control Gram-negative E. coli 25922 strain; read-out: MIC, 25922
In short: as §1

[3] = system: Haemophilus influenzae (H. influenzae) 49247; assay: Antibacterial activity, MIC (Table 6); type: cell-based
Description: (§2) The antibacterial activity from a microbroth dilution method may be presented as the minimum inhibitory concentration (MIC in μg/mL). The MIC value is the lowest concentration of drug which prevents macroscopically visible growth under test conditions.
(§3) Antibacterial activity of test compounds against the Gram-negative bacteria Haemophilus influenzae (H. influenzae) 49247 is shown in Table 6, Moraxella catarrhalis (M. catarrhalis) 25238 is shown in Table 7 and Neisseria meningitidis (N. meningitidis) 13090 is shown in Table 8.

[4] = system: Neisseria meningitidis (N. meningitidis) 13090; assay: Antibacterial activity, MIC (Table 8); type: cell-based
Description: as §2, §3

E. coli LZ3111 = assay: Antibacterial activity, MIC, quinolone resistant strain (Table 2); type: cell-based; settings: Escherichia coli, LZ3111, read-out: MIC LZ3111
In short: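 Growth inhibition assessed by serial drug dilution in broth; endpoint was absence of macroscopically visible growth, reported as MIC, μg/mL.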

E. coli ELZ4000 = assay: Antibacterial activity, MIC, multi-drug resistant clinical isolate (Table 3); type: cell-based; settings: Escherichia coli, ELZ4000, read-out: MIC ELZ4000
In short: (§4)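 Values derive from a microbroth dilution method, taking as MIC (μg/mL) the lowest tested concentration without macroscopically visible growth.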

E. coli ELZ4251 = assay: as above; type: cell-based; settings: Escherichia coli
In short: as §4

[5] = system: Acinetobacter baumannii (A. baumannii) BAA747; assay: Antibacterial activity, MIC (Table 4); type: cell-based; settings: A. baumannii BAA747, read-out: MIC, BAA747
In short: (§5)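 Values are minimum inhibitory concentrations in μg/mL from broth microdilution, meaning no macroscopically visible growth at that concentration. Resistant MXX isolates are multi-drug resistant clinical strains.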

[6] = system: Klebsiella pneumoniae (K. pneumoniae) 35657; assay: Antibacterial activity, MIC (Table 4); type: cell-based; settings: K. pneumoniae 35657, read-out: MIC, 35657
In short: as §5

A. baumannii MXX2240 = assay: Antibacterial activity, MIC, resistant strain (Table 4); type: cell-based; settings: Acinetobacter baumannii, MXX2240; resistant A. baumannii MMX2240, multi-drug resistant clinical isolate; read-out: MIC, MMX2240
In short: as §5

K. pneumoniae MXX1232 = assay: as above; type: cell-based; settings: Klebsiella pneumoniae, MXX1232; resistant K. pneumoniae MMX1232, multi-drug resistant clinical isolate; read-out: MIC, MMX1232
In short: as §5

[7] = system: Pseudomonas aeruginosa (P. aeruginosa) 27853; assay: Antibacterial activity, MIC (Table 5); type: cell-based; settings: P. aeruginosa 27853, read-out: MIC, 27853
In short: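 Using a microbroth dilution format, the minimum inhibitory concentration was recorded as the lowest tested concentration that stopped visible bacterial growth, expressed in μg/mL.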

Structure (SMILES): CCc1c(-c2ccc3c(c2)CCCN3C)[nH]c(=O)c(C(=O)O)c1O [Cpd 2, 5-ethyl-4-hydroxy-6-(1-methyl-1,2,3,4-tetrahydroquinolin-6-yl)-2-oxo-1,2-dihydropyridine-3-carboxylic acid]
- MIC [1]: < 1 µg/mL
- MIC [2]: 3.5 to 12.5 µg/mL (≈ 10.7 to 38.1 µM)
- MIC (E. coli 25922): 12.5 to 150 µg/mL (≈ 38.1 to 457 µM)
- MIC [3]: < 1 µg/mL
- MIC [4]: < 1 µg/mL

Structure (SMILES): CCc1cc(C(=O)O)c(=O)[nH]c1-c1ccc2c(c1)OCCN2C [Cpd 3, 5-ethyl-6-(4-methyl-3,4-dihydro-2H-benzo[b][1,4]oxazin-7-yl)-2-oxo-1,2-dihydropyridine-3-carboxylic acid]
- MIC [1]: < 1 µg/mL
- MIC [2]: 12.5 to 150 µg/mL (≈ 39.8 to 477 µM)
- MIC (E. coli 25922): 1 to 3.5 µg/mL (≈ 3.18 to 11.1 µM)
- MIC (E. coli LZ3111): 12.5 to 150 µg/mL (≈ 39.8 to 477 µM)
- MIC (E. coli ELZ4000): 12.5 to 150 µg/mL (≈ 39.8 to 477 µM)
- MIC (E. coli ELZ4251): 12.5 to 150 µg/mL (≈ 39.8 to 477 µM)
- MIC [5]: 3.5 to 12.5 µg/mL (≈ 11.1 to 39.8 µM)
- MIC [6]: 3.5 to 12.5 µg/mL (≈ 11.1 to 39.8 µM)
- MIC (A. baumannii MXX2240): 12.5 to 150 µg/mL (≈ 39.8 to 477 µM)
- MIC (K. pneumoniae MXX1232): 12.5 to 150 µg/mL (≈ 39.8 to 477 µM)
- MIC [7]: 12.5 to 150 µg/mL (≈ 39.8 to 477 µM)
- MIC [3]: < 1 µg/mL

Structure (SMILES): CCc1c(-c2ccc3c(c2)OCCN3C)[nH]c(=O)c(C(=O)O)c1O [Cpd 4, 5-ethyl-4-hydroxy-6-(4-methyl-3,4-dihydro-2H-benzo[b][1,4]oxazin-7-yl)-2-oxo-1,2-dihydropyridine-3-carboxylic acid]
- MIC [1]: < 1 µg/mL
- MIC [2]: 3.5 to 12.5 µg/mL (≈ 10.6 to 37.8 µM)
- MIC (E. coli 25922): 3.5 to 12.5 µg/mL (≈ 10.6 to 37.8 µM)
- MIC (E. coli LZ3111): 3.5 to 12.5 µg/mL (≈ 10.6 to 37.8 µM)
- MIC (E. coli ELZ4000): 3.5 to 12.5 µg/mL (≈ 10.6 to 37.8 µM)
- MIC (E. coli ELZ4251): 3.5 to 12.5 µg/mL (≈ 10.6 to 37.8 µM)
- MIC [5]: 1 to 3.5 µg/mL (≈ 3.03 to 10.6 µM)
- MIC [6]: 3.5 to 12.5 µg/mL (≈ 10.6 to 37.8 µM)
- MIC (A. baumannii MXX2240): 1 to 3.5 µg/mL (≈ 3.03 to 10.6 µM)
- MIC (K. pneumoniae MXX1232): 12.5 to 150 µg/mL (≈ 37.8 to 454 µM)
- MIC [7]: 12.5 to 150 µg/mL (≈ 37.8 to 454 µM)
- MIC [3]: < 1 µg/mL

Structure (SMILES): CCc1cc(C(=O)O)c(=O)[nH]c1-c1ccc2c(ccn2CC)c1 [Cpd 9, 5-ethyl-6-(1-ethyl-1H-indol-5-yl)-2-oxo-1,2-dihydropyridine-3-carboxylic acid]
- MIC [1]: < 1 µg/mL
- MIC [2]: 12.5 to 150 µg/mL (≈ 40.3 to 483 µM)
- MIC (E. coli 25922): 1 to 3.5 µg/mL (≈ 3.22 to 11.3 µM)
- MIC (E. coli LZ3111): 12.5 to 150 µg/mL (≈ 40.3 to 483 µM)
- MIC (E. coli ELZ4000): 12.5 to 150 µg/mL (≈ 40.3 to 483 µM)
- MIC (E. coli ELZ4251): 12.5 to 150 µg/mL (≈ 40.3 to 483 µM)
- MIC [3]: < 1 µg/mL

Structure (SMILES): CCc1c(-c2ccc3c(ccn3CC)c2)[nH]c(=O)c(C(=O)O)c1O [Cpd 10, 5-ethyl-6-(1-ethyl-1H-indol-5-yl)-4-hydroxy-2-oxo-1,2-dihydropyridine-3-carboxylic acid]
- MIC [1]: < 1 µg/mL
- MIC [2]: 1 to 3.5 µg/mL (≈ 3.06 to 10.7 µM)
- MIC (E. coli 25922): 3.5 to 12.5 µg/mL (≈ 10.7 to 38.3 µM)
- MIC (E. coli LZ3111): 12.5 to 150 µg/mL (≈ 38.3 to 460 µM)
- MIC (E. coli ELZ4000): 12.5 to 150 µg/mL (≈ 38.3 to 460 µM)
- MIC (E. coli ELZ4251): 12.5 to 150 µg/mL (≈ 38.3 to 460 µM)
- MIC [3]: < 1 µg/mL
- MIC [4]: < 1 µg/mL

Structure (SMILES): CCc1c(-c2ccc3c(c2)oc(=O)n3C)[nH]c(=O)c(C(=O)O)c1O [Cpd 11, 5-ethyl-4-hydroxy-6-(3-methyl-2-oxo-2,3-dihydrobenzo[d]oxazol-6-yl)-2-oxo-1,2-dihydropyridine-3-carboxylic acid]
- MIC [1]: < 1 µg/mL
- MIC [2]: 12.5 to 150 µg/mL (≈ 37.8 to 454 µM)
- MIC (E. coli 25922): 1 to 3.5 µg/mL (≈ 3.03 to 10.6 µM)
- MIC (E. coli LZ3111): 12.5 to 150 µg/mL (≈ 37.8 to 454 µM)
- MIC (E. coli ELZ4000): 12.5 to 150 µg/mL (≈ 37.8 to 454 µM)
- MIC (E. coli ELZ4251): 12.5 to 150 µg/mL (≈ 37.8 to 454 µM)
- MIC [3]: < 1 µg/mL

Structure (SMILES): CC(C)c1cc(C(=O)O)c(=O)[nH]c1-c1ccc2c(ccn2C)c1 [Cpd 33, 5-isopropyl-6-(1-methyl-1H-indol-5-yl)-2-oxo-1,2-dihydropyridine-3-carboxylic acid]
- MIC [1]: < 1 µg/mL
- MIC [2]: 12.5 to 150 µg/mL (≈ 40.3 to 483 µM)
- MIC (E. coli 25922): 3.5 to 12.5 µg/mL (≈ 11.3 to 40.3 µM)
- MIC (E. coli LZ3111): 12.5 to 150 µg/mL (≈ 40.3 to 483 µM)
- MIC (E. coli ELZ4000): 12.5 to 150 µg/mL (≈ 40.3 to 483 µM)
- MIC (E. coli ELZ4251): 12.5 to 150 µg/mL (≈ 40.3 to 483 µM)
- MIC [3]: < 1 µg/mL
- MIC [4]: < 1 µg/mL

Structure (SMILES): Cn1ccc2cc(-c3[nH]c(=O)c(C(=O)O)cc3C3CC3)ccc21 [Cpd 35, 5-cyclopropyl-6-(1-methyl-1H-indol-5-yl)-2-oxo-1,2-dihydropyridine-3-carboxylic acid]
- MIC [1]: < 1 µg/mL
- MIC [2]: 12.5 to 150 µg/mL (≈ 40.5 to 486 µM)
- MIC (E. coli 25922): 1 to 3.5 µg/mL (≈ 3.24 to 11.4 µM)
- MIC (E. coli LZ3111): 12.5 to 150 µg/mL (≈ 40.5 to 486 µM)
- MIC (E. coli ELZ4000): 12.5 to 150 µg/mL (≈ 40.5 to 486 µM)
- MIC (E. coli ELZ4251): 12.5 to 150 µg/mL (≈ 40.5 to 486 µM)
- MIC [3]: < 1 µg/mL
- MIC [4]: < 1 µg/mL
